Read-outs that look alike come from different tables or passages of the source. Values belong to the compound of their own block, whether it stands above or below them.
Tests used:
[1] = Acid neutralizing capacity (ANC) test and contribution of each active ingredient (21 C.F.R. 331); type: physicochemical
Method: Acid Neutralizing Capacity
Reagent standardization: as disclosed above.
Temperature: as disclosed above.
pH meter: as disclosed above.
Test suspension: the composition of Ex 1 was well-mixed and exactly 16.0 g (one unit dose) were transferred into a 250 ml glass beaker; sufficient water was added to obtain a total volume of about 70 ml; the resulting suspension was then mixed by means of a magnetic stirrer at 300±30 rpm for one minute. […]
Calculation of the mEq value: the number of mEq of acid neutralized by the test suspension was calculated as follows: […]
an accurately measured volume of an aluminum phosphate suspension containing exactly 9.904 g of aluminum phosphate gel, corresponding to the amount present in a one unit dose (16 g) of the antacid composition of Ex 1, were placed into a 250 ml glass beaker; distilled water was added up to a volume of 70 ml and the resulting suspension was mixed by means of a magnetic stirrer at 300±30 rpm for one minute; […]
Calculation: the percent contribution of each active ingredient in the total antacid composition of Ex 1 was calculated as follows: [formula]

[2] = Labelling of aluminum phosphate gel-containing antacid material with nuclide materials; type: physicochemical
Excerpt: After testing several nuclide materials having suitable gamma energies in the range of from 60 to 500 keV, such as ^99m technetium-containing materials (^99m Tc-sulfur colloids, ^99m Tc-albumin microspheres, ^99m Tc-dimercaptosuccinic acid complexes, ^99m Tc-polyphosphates, -pyrophosphates and -diphosphonates), it appeared that ^99m Tc-hydroxymethylene diphosphonate (^99m Tc-HMDP) is the most suitable radiopharmaceutical material for labelling aluminum phosphate gel-containing antacid material.

[3] = oral, cited from earlier work
[4] = 21 C.F.R. 331; cited from earlier work

contribution of active ingredient to ANC ([1]; amount present in one unit dose of Ex 1): 4.88 mEq | percent contribution of active ingredient to total ANC ([1]; relative to total antacid composition of Ex 1): 40%
Compound: [O]=[Mg] [MgO, magnesium oxide]

labelling efficiency [2]: high labelling efficiency | adsorption onto the wall of the reaction vessels or tubes ([2]; mainly glass): substantially non-adsorbed
Compound: ^99m Tc-hydroxymethylene diphosphonate [^99m Tc-HMDP]

Compound: sucralfate
Al-adhesiveness duration ([3]; no ulceration): 3 to 4 h | Al-adhesiveness duration ([3]; ulcerated sites of the gastric mucous membrane): about 24 h | antacid properties [4]: devoid of any antacid properties

Reference: patent publication US5318858A, “Antacid composition” (priority 1992, dated 1994)
